This passage reports IC50 results from US20250353848A1, “HETEROCYCLIC PAD4 INHIBITORS” (Celgene Corporation, priority 2022, published 2025).

Assay [1] deals with T1, hPAD4 enzyme (Homo sapiens, UniProt Q9UM07). Kind of assay: RFMS Assay 1 (rapid-fire mass spectrum PAD4 inhibition assay, BAEE substrate). Format: biochemical. The conditions noted are these: 5 nM hPAD4 enzyme, 250 μM BAEE, 30 mins compound and enzyme preincubation at 37° C., 90 min enzyme/substrate reaction. The gist of the method:
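Human PAD4 (5 nM) preincubated 30 min at 37 °C with compound (top 50 μM, 0.5% DMSO), then 250 μM BAEE for 90 min at 37 °C in pH 7.5 HEPES with 50 μM calcium, 5 μM TPEN, 1 mM DTT. Product derivatized with phenyl glyoxal; citrulline product quantified by RapidFire MS/MS MRM, normalized to internal standard.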

Assay [2] deals with T1, hPAD4 enzyme. Put plainly: RFMS Assay 2 (rapid-fire mass spectrum PAD4 inhibition assay, peptide substrate). It counts as biochemical. The conditions noted are these: 35 nM recombinant human PAD4, substrate TSTGGRQGSHH, room temperature for 30 minutes; read-out: human PAD4 (hPAD4) IC50, RFMS Assay 2. The protocol: Stock compounds were dissolved and stored in 100% DMSO. Compound solutions were prepared via serial dilution at 3-fold intervals in DMSO with top compound concentration at […] in each assay. 0.25 μl of compound solution was transferred from the compound plate to the assay plate by using an acoustic dispenser. Final assay conditions: • Total reaction volume: 25 μl • Assay buffer: […] pH 7.4, 200 mM NaCl, 2 mM CaCl2, 5 mM DTT • 35 nM recombinant human PAD4 • 500 µM TSTGGRQGSHH (SEQ ID NO: 1) • 1.2% DMSO • Stop solution: 10% formic acid
Reaction mixtures were incubated at room temperature for 30 minutes. 10 μl each of the reaction mixtures was then mixed with 40 μl of 10% formic acid in a microtiter plate. The plate was frozen at −80° C. before shipping out on dry ice for RapidFire mass spectroscopy analysis.
Thawed samples were loaded onto the Rapid Fire 300 system (Agilent) wherein they were first sipped for 250 ms and then loaded onto a Agilent “C” (C18) cartridge using a mobile phase of water containing 0.09% formic acid/0.01% trifluoroacetic acid for 3000 ms desalting flowing at a rate of 1.5 ml/min. Once the samples were loaded and washed, a mobile phase of acetonitrile containing 0.09% formic acid/0.01% trifluoroacetic acid was used to elute the samples directly onto a Sciex API4000 triple quadrupole mass spectrometer for 3000 ms at a flow rate of 1.25 ml/min.
MRM transitions for substrate and product were monitored in positive ESI mode at m/z=562.3/969.7 and m/z=562.8/541.3 respectively. The dwell time for each transition was set at 100 ms, and the ESI voltage was used at 5500 with a source temperature of 650° C. Extracted ion peaks for each transition were integrated using the Rapid Fire Integrator software.

T1 sequence (Q9UM07 whole entry): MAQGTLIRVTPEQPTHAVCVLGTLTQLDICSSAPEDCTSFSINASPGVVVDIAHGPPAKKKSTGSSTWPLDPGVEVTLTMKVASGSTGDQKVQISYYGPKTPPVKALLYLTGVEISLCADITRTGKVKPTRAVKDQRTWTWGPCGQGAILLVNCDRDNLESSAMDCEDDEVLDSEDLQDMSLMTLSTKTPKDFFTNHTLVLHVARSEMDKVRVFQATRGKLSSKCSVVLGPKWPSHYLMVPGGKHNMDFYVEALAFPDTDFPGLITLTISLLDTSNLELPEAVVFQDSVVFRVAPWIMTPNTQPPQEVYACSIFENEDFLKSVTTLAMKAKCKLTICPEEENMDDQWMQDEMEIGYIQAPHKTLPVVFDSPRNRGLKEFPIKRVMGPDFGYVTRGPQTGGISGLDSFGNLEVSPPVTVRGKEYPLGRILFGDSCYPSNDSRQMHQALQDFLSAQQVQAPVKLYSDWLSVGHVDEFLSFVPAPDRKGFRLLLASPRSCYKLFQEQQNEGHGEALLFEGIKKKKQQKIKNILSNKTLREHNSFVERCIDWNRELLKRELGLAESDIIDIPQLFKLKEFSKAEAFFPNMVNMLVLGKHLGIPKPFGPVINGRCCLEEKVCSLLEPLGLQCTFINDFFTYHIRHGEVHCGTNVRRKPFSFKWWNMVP

With `Cn1c(-c2cc3cccc(OC(F)Cn4cncc4F)c3n2CC2CC2)nc2cc3c(nc21)CCN(C[C@H](N)CF)C3=O` (single isomer, unassigned) [Example 75b], the IC50 in assay [1] is at most 10 nM; in assay [2] it was 11 to 100 nM.

Turning to `Cc1cncn1CCOc1cccc2cc(-c3nc4cc5c(nc4n3C)CCN(C[C@H](N)CF)C5=O)n(CC3CC3)c12` [Example 71, (S)-7-(2-amino-3-fluoropropyl)-2-(1-(cyclopropylmethyl)-7-(2-(5-methyl-1H-imidazol-1-yl)ethoxy)-1H-indol-2-yl)-3-methyl-3,5,6,7-tetrahydro-8H-imidazo[4,5-b][1,6]naphthyridin-8-one], the values for the IC50 in assay [1] and in assay [2] were 11 to 100 nM and 101 to 500 nM, respectively. For `COCC(=O)N1CCC(c2cccc3cc(-c4nc5cc6c(nc5n4C)CCN(C[C@H](N)CF)C6=O)n(CC4CC4)c23)CC1` [Example 30, (S)-7-(2-amino-3-fluoropropyl)-2-(1-(cyclopropylmethyl)-7-(1-(2-methoxyacetyl)piperidin-4-yl)-1H-indol-2-yl)-3-methyl-3,5,6,7-tetrahydro-8H-imidazo[4,5-b][1,6]naphthyridin-8-one], in that order: 11 to 100 nM and at most 10 nM.

With `Cn1c(-c2cc3cccc(OC[C@@H]4CNC(=O)O4)c3n2CC2CC2)nc2cc3c(nc21)CCN(C[C@H](N)CF)C3=O` [Example 34, (S)-5-(((2-(7-((S)-2-amino-3-fluoropropyl)-3-methyl-8-oxo-5,6,7,8-tetrahydro-3H-imidazo[4,5-b][1,6]naphthyridin-2-yl)-1-(cyclopropylmethyl)-1H-indol-7-yl)oxy)methyl)oxazolidin-2-one], the results for the 50% inhibitory concentration (IC50) in assay [1] and in assay [2] were at most 10 nM and 11 to 100 nM, respectively.

For `Cn1c(-c2cc3cccc(OCC(C)(C)n4ccnc4)c3n2CC2CC2)nc2cc3c(nc21)CCN(C[C@H](N)CF)C3=O` [Example 96, (S)-2-(7-(2-(1H-imidazol-1-yl)-2-methylpropoxy)-1-(cyclopropylmethyl)-1H-indol-2-yl)-7-(2-amino-3-fluoropropyl)-3-methyl-3,5,6,7-tetrahydro-8H-imidazo[4,5-b][1,6]naphthyridin-8-one], the IC50 is at most 10 nM in assay [1] and 101 to 500 nM in assay [2]. For `Cn1c(-c2cc3cccc(OCCc4ccn[nH]4)c3n2CC2CC2)nc2cc3c(nc21)CCN(C[C@H](N)CF)C3=O` [Example 43, (S)-2-(7-(2-(1H-pyrazol-5-yl)ethoxy)-1-(cyclopropylmethyl)-1H-indol-2-yl)-7-(2-amino-3-fluoropropyl)-3-methyl-3,5,6,7-tetrahydro-8H-imidazo[4,5-b][1,6]naphthyridin-8-one], in that order: at most 10 nM and 11 to 100 nM.

Turning to `COc1cccc2cc(-c3nc4cc5c(nc4n3C)CCN(C[C@H](N)CF)C5=O)n(CC3OCCO3)c12` [Example 16, (S)-2-(1-((1,3-dioxolan-2-yl)methyl)-7-methoxy-1H-indol-2-yl)-7-(2-amino-3-fluoropropyl)-3-methyl-3,5,6,7-tetrahydro-8H-imidazo[4,5-b][1,6]naphthyridin-8-one], the IC50 in assay [1] and in assay [2] was 101 to 500 nM in each case. For the compound `Cn1c(-c2cc3cccc(OC(F)Cn4ccnc4)c3n2CC2CC2)nc2cc3c(nc21)CCN(C[C@H](N)CF)C3=O` (single isomer, unassigned) [Example 74b], the IC50 is at most 10 nM in assay [1] and 11 to 100 nM in assay [2].

In the case of `C[C@@H](N)CN1CCc2nc3c(cc2C1=O)nc(-c1cc2ccccc2n1CC1CC1)n3C` [Example 24, (R)-7-(2-aminopropyl)-2-(1-(cyclopropylmethyl)-1H-indol-2-yl)-3-methyl-3,5,6,7-tetrahydro-8H-imidazo[4,5-b][1,6]naphthyridin-8-one], the IC50 lay within 11 to 100 nM in assay [1] and 501 to 1000 nM in assay [2]. As for `COc1cccc2cc(-c3nc4cc5c(nc4n3C)CCN(C[C@H](N)CF)C5=O)n(Cc3ncco3)c12` [Example 8, (S)-7-(2-amino-3-fluoropropyl)-2-(7-methoxy-1-(oxazol-2-ylmethyl)-1H-indol-2-yl)-3-methyl-3,5,6,7-tetrahydro-8H-imidazo[4,5-b][1,6]naphthyridin-8-one], the IC50 in assay [1] and in assay [2] was 501 to 1000 nM in each case. Turning to `Cc1nnc(CCOc2cccc3cc(-c4nc5cc6c(nc5n4C)CCN(C[C@H](N)CF)C6=O)n(CC4CC4)c23)o1` [Example 54, (S)-7-(2-amino-3-fluoropropyl)-2-(1-(cyclopropylmethyl)-7-(2-(5-methyl-1,3,4-oxadiazol-2-yl)ethoxy)-1H-indol-2-yl)-3-methyl-3,5,6,7-tetrahydro-8H-imidazo[4,5-b][1,6]naphthyridin-8-one], the IC50 in assay [1] and in assay [2] was 11 to 100 nM each time. On to `COc1cccc2cc(-c3nc4cc5c(nc4n3C)CCN(C[C@H]3COCCN3)C5=O)n(CC3(F)CC3)c12` [Example 26, (S)-2-(1-((1-fluorocyclopropyl)methyl)-7-methoxy-1H-indol-2-yl)-3-methyl-7-(morpholin-3-ylmethyl)-3,5,6,7-tetrahydro-8H-imidazo[4,5-b][1,6]naphthyridin-8-one], for which the IC50 in assay [1] and in assay [2] was 101 to 500 nM in each case.

`COc1cccc2cc(-c3nc4cc5c(nc4n3C)CCN(C[C@H](N)CF)C5=O)n(CC3CC3)c12` [Example 1, (S)-7-(2-amino-3-fluoropropyl)-2-(1-(cyclopropylmethyl)-7-methoxy-1H-indol-2-yl)-3-methyl-3,5,6,7-tetrahydro-8H-imidazo[4,5-b][1,6]naphthyridin-8-one]: the IC50 in assay [1] was in the range of 101 to 500 nM; in assay [2] it was 501 to 1000 nM. For `Cc1ncoc1CCOc1cccc2cc(-c3nc4cc5c(nc4n3C)CCN(C[C@H](N)CF)C5=O)n(CC3CC3)c12` [Example 48, (S)-7-(2-amino-3-fluoropropyl)-2-(1-(cyclopropylmethyl)-7-(2-(4-methyloxazol-5-yl)ethoxy)-1H-indol-2-yl)-3-methyl-3,5,6,7-tetrahydro-8H-imidazo[4,5-b][1,6]naphthyridin-8-one], in that order: 11 to 100 nM and 101 to 500 nM. With `Cn1c(-c2cc3cccc(OC(F)Cn4ccnc4)c3n2CC2CC2)nc2cc3c(nc21)CCN(C[C@H](N)CF)C3=O` (single isomer, unassigned) [Example 74a], the IC50 is at most 10 nM in assay [1] and 11 to 100 nM in assay [2]. For `C[C@H](COc1cccc2cc(-c3nc4cc5c(nc4n3C)CCN(C[C@H](N)CF)C5=O)n(CC3CC3)c12)n1cnc(F)c1` [Example 85, 7-((S)-2-amino-3-fluoropropyl)-2-(1-(cyclopropylmethyl)-7-((R)-2-(4-fluoro-1H-imidazol-1-yl)propoxy)-1H-indol-2-yl)-3-methyl-3,5,6,7-tetrahydro-8H-imidazo[4,5-b][1,6]naphthyridin-8-one], in that order: at most 10 nM and 11 to 100 nM. The matching figures for `Cn1c(-c2cc3ccnc(OCCn4ccnc4)c3n2CC2CC2)nc2cc3c(nc21)CCN(C[C@H](N)CF)C3=O` [Example 84, (S)-2-(7-(2-(1H-imidazol-1-yl)ethoxy)-1-(cyclopropylmethyl)-1H-pyrrolo[2,3-c]pyridin-2-yl)-7-(2-amino-3-fluoropropyl)-3-methyl-3,5,6,7-tetrahydro-8H-imidazo[4,5-b][1,6]naphthyridin-8-one]: at most 10 nM and 11 to 100 nM.

On to `Cn1c(-c2cc3cccc(OC[C@H]4CNC(=O)C4)c3n2CC2CC2)nc2cc3c(nc21)CCN(C[C@H](N)CF)C3=O` [Example 60, 7-((S)-2-amino-3-fluoropropyl)-2-(1-(cyclopropylmethyl)-7-(((R)-5-oxopyrrolidin-3-yl)methoxy)-1H-indol-2-yl)-3-methyl-3,5,6,7-tetrahydro-8H-imidazo[4,5-b][1,6]naphthyridin-8-one], for which the IC50 in assay [2] fell in the range of 101 to 500 nM. The same measure, in the same setting: with `COc1cccc2cc(-c3nc4cc5c(nc4n3C)CCN(C[C@H](N)CF)C5=O)n(Cc3oncc3C)c12` [Example 9, (S)-7-(2-amino-3-fluoropropyl)-2-(7-methoxy-1-((4-methylisoxazol-5-yl)methyl)-1H-indol-2-yl)-3-methyl-3,5,6,7-tetrahydro-8H-imidazo[4,5-b][1,6]naphthyridin-8-one] the figure was 101 to 500 nM; with `Cn1c(-c2cc3cccc(OCC4CC(=O)NC4(C)C)c3n2CC2CC2)nc2cc3c(nc21)CCN(C[C@H](N)CF)C3=O` (stereo partly drawn) [Example 35, 7-((S)-2-amino-3-fluoropropyl)-2-(1-(cyclopropylmethyl)-7-((2,2-dimethyl-5-oxopyrrolidin-3-yl)methoxy)-1H-indol-2-yl)-3-methyl-3,5,6,7-tetrahydro-8H-imidazo[4,5-b][1,6]naphthyridin-8-one], 501 to 1000 nM.
